Reference: ChEMBL document CHEMBL5107972 (RSC Med Chem, 2022)
Values after ≈ are worked out from the molar mass of the structure shown. Active and inactive are the calls of the source. The calls are words filed in the database; no cut-off is given here.

What was measured:
[1] = system: Mycobacterium tuberculosis; assay: Antitubercular activity against Mycobacterium tuberculosis H37Rv ATCC 27294 assessed as inhibition of bacterial growth incubated for 7 days by Presto blue resazurin microtiter plate assay; assay type: functional; conditions: H37Rv ATCC 27294, 168 h, time 7 day
[2] = system: Staphylococcus aureus; assay: Antibacterial activity against Staphylococcus aureus ATCC 29213 assessed as inhibition of bacterial growth incubated for 16 to 18 hrs by CLSI based microdilution method; assay type: functional; conditions: time 16-18 hrs
[3] = system: Mycobacterium tuberculosis; assay: Bactericidal activity against Mycobacterium tuberculosis H37Rv ATCC 27294 assessed as reduction in colony formation at 1 to 10 times of MIC incubated for 6 to 7 days by time-kill assay; assay type: functional, organism-based; conditions: time 6-7 day

| SMILES | MIC [1] | MIC [2] | Activity [3] |
| --- | --- | --- | --- |
| O=c1nc(SCc2cn(-c3ccc(O)cc3)nn2)sc2c([N+](=O)[O-])cc(Cl)cc12 | 64 µg/mL (≈ 143 µM) | ≥ 64 µg/mL |  |
| CN[C@@H]1[C@H](O[C@H]2[C@H](O[C@H]3[C@H](O)[C@@H](O)[C@H](N=C(N)N)[C@@H](O)[C@@H]3N=C(N)N)O[C@@H](C)[C@]2(O)C=O)O[C@@H](CO)[C@H](O)[C@H]1O [STREPTOMYCIN] | 1 µg/mL (≈ 1.72 µM) |  |  |
| O=c1nc(SCc2cn(-c3ccc(Br)cc3)nn2)sc2c([N+](=O)[O-])cc(Cl)cc12 | 4 µg/mL (≈ 7.83 µM) | ≥ 64 µg/mL |  |
| O=C(O)c1ccc(-n2cc(CSc3nc(=O)c4cc(Cl)cc([N+](=O)[O-])c4s3)nn2)cc1O | > 64 µg/mL | ≥ 64 µg/mL |  |
| NNC(=O)c1ccncc1 [ISONIAZID] | 0.03 µg/mL (≈ 0.219 µM) |  |  |
| COc1ccc(-n2cc(CSc3nc(=O)c4cc(Cl)cc([N+](=O)[O-])c4s3)nn2)cc1 | 32 µg/mL (≈ 69.3 µM) | ≥ 64 µg/mL |  |
| CCCCCCOc1ccc(-n2cc(CSc3nc(=O)c4cc(Cl)cc([N+](=O)[O-])c4s3)nn2)cc1 | 8 µg/mL (≈ 15 µM) | ≥ 64 µg/mL |  |
| Cc1ccc(-n2cc(CSc3nc(=O)c4cc(Cl)cc([N+](=O)[O-])c4s3)nn2)c(C)c1 | 32 µg/mL (≈ 69.6 µM) | ≥ 64 µg/mL |  |
| O=c1nc(SCc2cn(-c3cccc(C(F)(F)F)c3)nn2)sc2c([N+](=O)[O-])cc(Cl)cc12 | 8 µg/mL (≈ 16 µM) | ≥ 64 µg/mL |  |
| N#Cc1cccc(-n2cc(CSc3nc(=O)c4cc(Cl)cc([N+](=O)[O-])c4s3)nn2)c1 | 64 µg/mL (≈ 140 µM) | ≥ 64 µg/mL |  |
| O=C(O)c1ccc(-n2cc(CSc3nc(=O)c4cc(Cl)cc([N+](=O)[O-])c4s3)nn2)cc1 | > 64 µg/mL | ≥ 64 µg/mL |  |
| O=c1nc(SCc2cn(-c3ccc(F)c(F)c3)nn2)sc2c([N+](=O)[O-])cc(Cl)cc12 | 8 µg/mL (≈ 17.1 µM) | ≥ 64 µg/mL |  |
| O=c1nc(SCc2cn(-c3ccc4ccccc4c3)nn2)sc2c([N+](=O)[O-])cc(Cl)cc12 | 64 µg/mL (≈ 133 µM) | ≥ 64 µg/mL |  |
| O=c1nc(SCc2cn(-c3ccc(F)cc3)nn2)sc2c([N+](=O)[O-])cc(Cl)cc12 | 8 µg/mL (≈ 17.8 µM) | ≥ 64 µg/mL |  |
| CC(C)Oc1cccc(-n2cc(CSc3nc(=O)c4cc(Cl)cc([N+](=O)[O-])c4s3)nn2)c1 | 64 µg/mL (≈ 131 µM) | ≥ 64 µg/mL |  |
| O=c1nc(SCc2cn(-c3ccc([N+](=O)[O-])cc3)nn2)sc2c([N+](=O)[O-])cc(Cl)cc12 | 16 µg/mL (≈ 33.6 µM) | ≥ 64 µg/mL |  |
| NS(=O)(=O)c1ccc(-n2cc(CSc3nc(=O)c4cc(Cl)cc([N+](=O)[O-])c4s3)nn2)cc1 | > 64 µg/mL | ≥ 64 µg/mL |  |
| O=c1nc(SCc2cn(-c3cccnc3)nn2)sc2c([N+](=O)[O-])cc(Cl)cc12 | 32 µg/mL (≈ 73.9 µM) | ≥ 64 µg/mL |  |
| CO[C@H]1/C=C/O[C@@]2(C)Oc3c(C)c(O)c4c(O)c(c(/C=N/N5CCN(C)CC5)c(O)c4c3C2=O)NC(=O)/C(C)=C\C=C\[C@H](C)[C@H](O)[C@@H](C)[C@@H](O)[C@@H](C)[C@H](OC(C)=O)[C@@H]1C [RIFAMPIN] | 0.06 µg/mL (≈ 0.0729 µM) |  | Active |
| Cc1ccc(-n2cc(CSc3nc(=O)c4cc(Cl)cc([N+](=O)[O-])c4s3)nn2)cc1 | 8 µg/mL (≈ 17.9 µM) | ≥ 64 µg/mL |  |

| SMILES | MIC [1] | MIC [2] | Activity [3] |
| --- | --- | --- | --- |
| COc1cc(OC)cc(-n2cc(CSc3nc(=O)c4cc(Cl)cc([N+](=O)[O-])c4s3)nn2)c1 | > 64 µg/mL | ≥ 64 µg/mL |  |
| O=c1nc(SCc2cn(-c3cccc(F)c3)nn2)sc2c([N+](=O)[O-])cc(Cl)cc12 | 8 µg/mL (≈ 17.8 µM) | ≥ 64 µg/mL |  |
| COc1ccc(-n2cc(CSc3nc(=O)c4cc(Cl)cc([N+](=O)[O-])c4s3)nn2)cc1OC | 32 µg/mL (≈ 65 µM) | ≥ 64 µg/mL |  |
| CC[C@@H](CO)NCCN[C@@H](CC)CO [ETHAMBUTOL] | 1 µg/mL (≈ 4.89 µM) |  |  |
| O=c1nc(SCc2cn(-c3ccc(F)c(Cl)c3)nn2)sc2c([N+](=O)[O-])cc(Cl)cc12 | 8 µg/mL (≈ 16.5 µM) | ≥ 64 µg/mL |  |
| COc1cc(-n2cc(CSc3nc(=O)c4cc(Cl)cc([N+](=O)[O-])c4s3)nn2)cc(OC)c1OC | 64 µg/mL (≈ 123 µM) | ≥ 64 µg/mL |  |
| O=c1nc(SCc2cn(-c3cccc([N+](=O)[O-])c3)nn2)sc2c([N+](=O)[O-])cc(Cl)cc12 | 32 µg/mL (≈ 67.1 µM) | ≥ 64 µg/mL |  |
| Cc1cccc(-n2cc(CSc3nc(=O)c4cc(Cl)cc([N+](=O)[O-])c4s3)nn2)c1 | 8 µg/mL (≈ 17.9 µM) | ≥ 64 µg/mL |  |
| O=c1nc(SCc2cn(-c3cccc(Cl)c3)nn2)sc2c([N+](=O)[O-])cc(Cl)cc12 | 16 µg/mL (≈ 34.3 µM) | ≥ 64 µg/mL |  |
| O=c1nc(SCc2cn(-c3ccc(N4CCCCC4)cc3)nn2)sc2c([N+](=O)[O-])cc(Cl)cc12 | 64 µg/mL (≈ 124 µM) | ≥ 64 µg/mL |  |
| O=c1nc(SCc2cn(-c3ccc(N4CCOCC4)c(F)c3)nn2)sc2c([N+](=O)[O-])cc(Cl)cc12 | 64 µg/mL (≈ 120 µM) | ≥ 64 µg/mL |  |
| O=c1nc(SCc2cn(-c3ccccc3)nn2)sc2c([N+](=O)[O-])cc(Cl)cc12 | 32 µg/mL (≈ 74.1 µM) | ≥ 64 µg/mL |  |
| O=c1nc(SCc2cn(-c3ccccc3F)nn2)sc2c([N+](=O)[O-])cc(Cl)cc12 | 16 µg/mL (≈ 35.6 µM) | ≥ 64 µg/mL |  |
| O=c1nc(SCc2cn(-c3ccc(N4CCCCC4)c(F)c3)nn2)sc2c([N+](=O)[O-])cc(Cl)cc12 | 64 µg/mL (≈ 120 µM) | ≥ 64 µg/mL |  |
| O=c1ccc2cc(-n3cc(CSc4nc(=O)c5cc(Cl)cc([N+](=O)[O-])c5s4)nn3)ccc2o1 | 32 µg/mL (≈ 64 µM) | ≥ 64 µg/mL |  |
| NS(=O)(=O)c1cccc(-n2cc(CSc3nc(=O)c4cc(Cl)cc([N+](=O)[O-])c4s3)nn2)c1 | > 64 µg/mL | ≥ 64 µg/mL |  |
| O=c1nc(SCc2cn(-c3ccccc3Cl)nn2)sc2c([N+](=O)[O-])cc(Cl)cc12 | 32 µg/mL (≈ 68.6 µM) | ≥ 64 µg/mL |  |
| O=c1nc(SCc2cn(-c3ccc(Oc4ccccc4)cc3)nn2)sc2c([N+](=O)[O-])cc(Cl)cc12 | 32 µg/mL (≈ 61.1 µM) | ≥ 64 µg/mL |  |
| O=C(O)c1cccc(-n2cc(CSc3nc(=O)c4cc(Cl)cc([N+](=O)[O-])c4s3)nn2)c1 | > 64 µg/mL | ≥ 64 µg/mL |  |
| CC(=O)c1cccc(-n2cc(CSc3nc(=O)c4cc(Cl)cc([N+](=O)[O-])c4s3)nn2)c1 | 32 µg/mL (≈ 67.5 µM) | ≥ 64 µg/mL |  |
